Measured values reported in patent US11286268B1, “EIF4E-inhibiting compounds and methods” (EFFECTOR THERAPEUTICS, INC., priority 2019, dated 2022).
Where two headings read alike, the source gives them in different places.

Biological target: recombinant eIF4E (Homo sapiens (Human), UniProt P06730)
Assay: Fluorescence polarization competition assay for eIF4E binding potency
Outline: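 Protein and fluorescent cap-analog probe (EDA-m7GDP-ATTO-550) were mixed first for 5 min, after which serially diluted compound was added to final 75 nM eIF4E, 20 nM probe, 1% DMSO. Reactions equilibrated 30 min at room temperature before polarization was measured.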

[1] = fluorescence polarization competition, 75 nM recombinant eIF4E, 20 nM EDA-m7GDP-ATTO-550, IC50 class, read-out: elF4E FP
[2] = inhibition of eIF4E/EDA-m7GDP-ATTO-550 binding by 50%, Table 4B calculated values, read-out: IC50

recombinant eIF4E, sequence (P06730 whole entry): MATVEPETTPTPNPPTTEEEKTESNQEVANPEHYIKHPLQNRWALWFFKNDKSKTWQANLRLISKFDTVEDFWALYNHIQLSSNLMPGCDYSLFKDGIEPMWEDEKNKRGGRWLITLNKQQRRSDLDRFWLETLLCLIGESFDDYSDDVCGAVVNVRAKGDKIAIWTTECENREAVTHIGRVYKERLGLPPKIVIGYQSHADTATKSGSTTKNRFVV

| IC50 [1] [nM] | IC50 [2] [nM] | SMILES |
| --- | --- | --- |
| < 50 | 26.7 | Cc1nc2cc(C(F)(F)F)c(N3CCN(c4ccccn4)CC3)c(C#N)c2c(=O)n1CCOc1ccc(Cl)cc1-c1cccc(C(=O)O)c1 [compound 379] |
| < 50 | 29.7 | Cc1nc2cc(C(F)(F)F)c(N3CCN(c4cccnc4)CC3)c(C#N)c2c(=O)n1CCOc1ccc(Cl)cc1-c1cccc(C(=O)O)c1 [compound 380] |
| < 50 | 20.9 | Cc1nc2cnc(C3CC3)c(C#N)c2c(=O)n1CC#Cc1ccc(Cl)cc1-c1ccnc2c(C(=O)O)csc12 [compound 384] |
| < 50 | 39.5 | Cc1cc(-c2cc(Cl)ccc2OCCn2c(C)nc3cnc(C4CC4)c(C#N)c3c2=O)c2scc(C(=O)NS(C)(=O)=O)c2n1 [compound 385] |
| < 50 | 25.4 | Cc1nc2cc(C(F)(F)F)c(-c3ccncc3)c(C#N)c2c(=O)n1CCOc1ccc(Cl)cc1-c1cccc(C(=O)O)c1 [compound 386] |
| 50 to 1000 | 619 | Cc1nc2cc(C(F)(F)F)c(N3CCN(c4ccncc4)CC3)c(C#N)c2c(=O)n1CCOc1ccc(Cl)cc1-c1cccc(C(=O)O)c1 [compound 387] |
| < 50 | 6.29 | Cc1nc2cc(C(F)(F)F)c(-c3cccnc3)c(C#N)c2c(=O)n1CCOc1ccc(Cl)cc1-c1cccc(C(=O)O)c1 [compound 388] |
| < 50 | 12.3 | Cc1cc(-c2cc(Cl)ccc2OCCn2c(C)nc3cc(C(F)(F)F)c(-c4cnc(C)c(C)c4)c(C#N)c3c2=O)c2scc(C(=O)O)c2n1 [compound 389] |
| < 50 | 1.75 | Cc1cc(-c2cc(Cl)ccc2OCCn2c(C)nc3cc(C(F)(F)F)c(Cc4ccccn4)nc3c2=O)c2scc(C(=O)O)c2n1 [compound 390] |
| < 50 | 3.52 | CCCCc1nc2c(=O)n(CCOc3ccc(Cl)cc3-c3cc(C)nc4c(C(=O)O)csc34)c(C)nc2cc1C(F)(F)F [compound 391] |
| < 50 | 25.1 | Cc1cc(-c2cc(Cl)ccc2OCCn2c(C)nc3cc(Cl)c(-c4cc(F)cnc4C)c(C#N)c3c2=O)c2scc(C(=O)O)c2n1 [compound 392] |
| < 50 | 11.8 | Cc1cc(-c2c(Cl)cc3nc(C)n(CCOc4ccc(Cl)cc4-c4cc(C)nc5c(C(=O)O)csc45)c(=O)c3c2C#N)ccn1 [compound 393] |
| < 50 | 21.8 | Cc1cc(-c2cc(Cl)ccc2OCCn2c(C)nc3cc(Cl)c(-c4cncc(F)c4)c(C#N)c3c2=O)c2scc(C(=O)O)c2n1 [compound 394] |
| < 50 | 9.68 | Cc1cc(-c2cc(Cl)ccc2OCCn2c(C)nc3cc(Cl)c(-c4cccnc4C)c(C#N)c3c2=O)c2scc(C(=O)O)c2n1 [compound 395] |
| < 50 | 18.1 | Cc1cc(-c2c(Cl)cc3nc(C)n(CCOc4ccc(Cl)cc4-c4cc(C)nc5c(C(=O)O)csc45)c(=O)c3c2C#N)cc(C)n1 [compound 396] |
| < 50 | 10.5 | Cc1cc(-c2cc(Cl)ccc2OCCn2c(C)nc3cc(Cl)c(-c4ccc(N(C)C)nc4)c(C#N)c3c2=O)c2scc(C(=O)O)c2n1 [compound 397] |
| 50 to 1000 | 149 | Cc1cc(-c2cc(Cl)ccc2OCCn2c(C)nc3cc(C(F)(F)F)cc(C#N)c3c2=O)c2scc(C(=O)NCC(=O)O)c2n1 [compound 398] |
| 50 to 1000 | 69.9 | Cc1cc(-c2cc(Cl)ccc2OCCn2c(C)nc3cc(C(F)(F)F)c(Cc4cccnc4)c(Cl)c3c2=O)c2scc(C(=O)O)c2n1 [compound 399] |
| < 50 | 4.68 | Cc1cc(-c2cc(Cl)ccc2OCCn2c(C)nc3c(C)nc(CC4CCOCC4)c(C#N)c3c2=O)c2scc(C(=O)O)c2n1 [compound 400] |
| < 50 | 12.6 | COc1ccc(C#N)c2c(=O)n(CCOc3ccc(Cl)cc3-c3ccnc4c(C(=O)O)csc34)c(C)nc12 [compound 403] |
| < 50 | 10.1 | COc1ccc2nc(C)n(CCOc3ccc(Cl)cc3-c3ccnc4c(C(=O)O)csc34)c(=O)c2c1C#N [compound 404] |
| < 50 | 19.7 | COc1cc(C#N)c2c(=O)n(CCOc3ccc(Cl)cc3-c3ccnc4c(C(=O)O)csc34)c(C)nc2c1 [compound 405] |
| < 50 | 11.4 | Cc1nc2ccc(OC(F)(F)F)c(C#N)c2c(=O)n1CCOc1ccc(Cl)cc1-c1ccnc2c(C(=O)O)csc12 [compound 406] |
| < 50 | 33.1 | Cc1nc2c(F)cc(Cl)c(C#N)c2c(=O)n1CCOc1ccc(Cl)cc1-c1ccnc2c(C(=O)O)csc12 [compound 407] |
| < 50 | 31.1 | Cc1nc2cc(C(F)(F)F)c(CN(C)C)cc2c(=O)n1CCOc1ccc(Cl)cc1-c1ccnc2c(C(=O)O)csc12 [compound 408] |
| < 50 | 13.3 | Cc1cc(-c2cc(Cl)ccc2OCCc2c(C)n(C)c3cc(C(F)(F)F)cc(C#N)c3c2=O)c2scc(C(=O)O)c2n1 [compound 409] |

| IC50 [1] [nM] | IC50 [2] [nM] | SMILES |
| --- | --- | --- |
| 50 to 1000 | 62.6 | Cc1cc(-c2cc(Cl)ccc2OCCn2c(C)nc3cc(C(F)(F)F)cc(C#N)c3c2=O)cc(C(=O)O)n1 [compound 410] |
| 50 to 1000 | 193 | Cc1cc(-c2cc(Cl)ccc2OCCn2c(C)nc3cc(C(F)(F)F)cc(C#N)c3c2=O)cc(CC(=O)O)n1 [compound 411] |
| 50 to 1000 | 70.1 | CNC(=O)c1cc(C#N)c2c(=O)n(CCOc3ccc(Cl)cc3-c3ccnc4c(C(=O)O)csc34)c(C)nc2c1 [compound 412] |
| < 50 | 34.6 | Cc1nc2cc(C(=O)N(C)C)cc(C#N)c2c(=O)n1CCOc1ccc(Cl)cc1-c1ccnc2c(C(=O)O)csc12 [compound 413] |
| < 50 | 20.5 | CC(=O)c1cnn2c(-c3cc(Cl)ccc3OCCn3c(C)nc4cc(C(F)(F)F)cc(C#N)c4c3=O)cc(C)nc12 [compound 414] |
| < 50 | 14.3 | Cc1c(C(F)(F)F)cc2nc(C)n(CCOc3ccc(Cl)cc3-c3ccnc4c(C(=O)O)csc34)c(=O)c2c1C#N [compound 415] |
| < 50 | 23 | Cc1c(C(F)(F)F)cc(C#N)c2c(=O)n(CCOc3ccc(Cl)cc3-c3ccnc4c(C(=O)O)csc34)c(C)nc12 [compound 416] |
| < 50 | 19.7 | Cc1cc(-c2cc(Cl)ccc2OCCn2c(C)nc3cc(C(F)(F)F)c(CN4CCN(C)CC4)c(C#N)c3c2=O)c2sc(C)c(C(=O)O)c2n1 [compound 417] |
| < 50 | 9.07 | Cc1cc(-c2cc(Cl)ccc2OCCn2c(C)nc3cnc(C4CC4)c(C#N)c3c2=O)c2scc(C(=O)O)c2n1 [compound 418] |
| < 50 |  | Cc1cc(-c2cc(Cl)ccc2OCCn2c(C)nc3cnc(C)c(C#N)c3c2=O)c2scc(C(=O)O)c2n1 [compound 419] |
| < 50 | 9.6 | Cc1cc(-c2cc(Cl)ccc2OCCn2c(C)nc3cnc(C(C)(C)C)c(C#N)c3c2=O)c2scc(C(=O)O)c2n1 [compound 420] |
| < 50 |  | Cc1cc(-c2cc(Cl)ccc2OCCn2c(C)nc3cc(C(F)(F)F)c(-c4ccccn4)c(C#N)c3c2=O)c2sc(C)c(C(=O)O)c2n1 [compound 421] |
| < 50 | 11.5 | Cc1cc(-c2cc(Cl)ccc2OCCn2c(C)nc3cc(C(F)(F)F)c(N4CCCC4)c(C#N)c3c2=O)c2scc(C(=O)O)c2n1 [compound 422] |
| < 50 | 8.84 | Cc1cc(-c2cc(Cl)ccc2OCCn2c(C)nc3cc(C(F)(F)F)c(N4CCCCC4)c(C#N)c3c2=O)c2scc(C(=O)O)c2n1 [compound 423] |
| < 50 | 4.08 | Cc1cc(-c2cc(Cl)ccc2OCCn2c(C)nc3cc(C(F)(F)F)c(CC4CNC4)c(C#N)c3c2=O)c2scc(C(=O)O)c2n1 [compound 424] |
| < 50 | 11.2 | Cc1cc(-c2cc(Cl)ccc2OCCn2c(C)nc3cc(C(F)(F)F)c(CC4CN(C)C4)c(C#N)c3c2=O)c2scc(C(=O)O)c2n1 [compound 425] |
| < 50 | 41.2 | Cc1cc(-c2cc(Cl)ccc2OCCn2c(C)nc3cc(C(F)(F)F)c(-c4ccccn4)cc3c2=O)c2scc(C(=O)O)c2n1 [compound 426] |
| < 50 | 25 | Cc1cc(-c2cc(Cl)ccc2OCCn2c(C)nc3cc(C(F)(F)F)c(N4CCN(C)CC4)cc3c2=O)c2scc(C(=O)O)c2n1 [compound 427] |
| < 50 | 7.45 | Cc1cc(-c2cc(Cl)ccc2OCCn2c(C)nc3cc(C(F)(F)F)c(N4CCN(CC(F)F)CC4)c(C#N)c3c2=O)c2scc(C(=O)O)c2n1 [compound 428] |
| < 50 |  | Cc1cc(-c2cc(Cl)ccc2OCCn2c(C)nc3cc(C(F)(F)F)c(C4=CCOCC4)c(C#N)c3c2=O)c2scc(C(=O)O)c2n1 [compound 429] |
| < 50 | 9 | Cc1cc(-c2cc(Cl)ccc2OCCn2c(C)nc3cc(C(F)(F)F)c(N4CCN(CCF)CC4)c(C#N)c3c2=O)c2scc(C(=O)O)c2n1 [compound 430] |
| 50 to 1000 | 226 | Cc1cc(-c2cc(Cl)ccc2OCCn2c(C)nc3cc(C(F)(F)F)c(C4CCOCC4)c(C#N)c3c2=O)c2scc(C(=O)O)c2n1 [compound 431] |
| < 50 | 25.8 | Cc1cc(-c2cc(Cl)ccc2OCCn2c(C)nc3cnc(C(C)C)c(C#N)c3c2=O)c2scc(C(=O)O)c2n1 [compound 432] |
| < 50 | 4.15 | Cc1cc(-c2cc(Cl)ccc2OCCn2c(C)nc3cc(C(F)(F)F)c(-c4ncc(F)cc4F)c(C#N)c3c2=O)c2scc(C(=O)O)c2n1 [compound 433] |
| < 50 | 7.76 | Cc1ccc(F)c(-c2c(C(F)(F)F)cc3nc(C)n(CCOc4ccc(Cl)cc4-c4cc(C)nc5c(C(=O)O)csc45)c(=O)c3c2C#N)n1 [compound 434] |

| SMILES | IC50 [1] [nM] | IC50 [2] [nM] |
| --- | --- | --- |
| Cc1nc2cc(C(F)(F)F)cc(C#N)c2c(=O)n1CCOc1ccc(Cl)cc1-c1cccc2c(C(=O)O)csc12 [compound 402] | 50 to 1000 | 124 |
